Measured values as given in US12083159B2, “Antibacterial compositions, methods of making and use thereof” (MOREHOUSE SCHOOL OF MEDICINE, priority 2011, dated 2024).
Where no end group is shown, it is not given here.

Columns and labels:
Jurkat = format: cell-based; details: Jurkat cultures, 12 days
Protocol: Jurkat cultures seeded at low density were grown in the presence of the SMRwt or the SMRmut peptide. A small but consistent aliquot was taken from each culture daily over a period of 12 days. The cells in the aliquot were counted and the cells/ml in the culture calculated to determine culture growth. The data are shown with time on the x-axis and cell number on the y-axis.
Neither peptide cause cell death (data not shown). Using immunoprecipitation with the SMRwt peptide as bait to screen for cellular factors interacting with the SMR domain, a cellular protein Mortalin was co-immunoprecipitated with the SMRwt peptide (FIG. 3). Mortalin, also known as Glucose-regulated protein 75 (GRP75) and Peptide-binding protein 74, is a 679 amino acid long, uninducible member of the heat shock protein 70 family. It has a high degree of identity with other members of the Hsp70 family, including Escherichia coli DnaK.

Vibrio cholerae C7258 = assay: Biofilm formation, crystal violet assay (microtiter plate); format: cell-based; details: FIG. 12
Protocol: (§1) Biofilm Formation and Measurement Procedures by Crystal Violet Assay: (1) incubate bacteria in agar plate; (2) single colony was transferred to fresh medium and incubated for overnight; (3) cultures were diluted 1:50 into fresh medium and (4) was dispensed into 96 well plate and incubated for overnight; (5) detection of bacteria growth ability, the OD at 600 nm was determined by the SpectraMax M5 Microplate Reader (6) washed by 1× PBS; (7) stained with crystal violet; (8) detection of biofilm, the OD at 570 nm was determined by the SpectraMax M5 Microplate Reader.
(§2) SMR(mut)-CPP (tat) peptide was used as a negative control.
(§3) Bacterial strains evaluated for biofilm formation included (1) the Gram-negative Vibrio cholerae C7258 strain (A. J. Silva et al., J. Bact., 190 (22):7335-7345 (November 2008); J. C. Ayala et al., Genomics data 5, pp. 147-150, (2015)); (2) the Gram-negative Escherichia coli 042 strain (Taxonomy ID: 216592, R. R. Chaudhuri et al, PLOS One, 5(1):e8801 (Jan. 20, 2010), and (3) the Gram-positive Staphylococcus aureus SCO1 strain (ATCC 12228, S. Sarkar et al., PLos One, 10(2):e0117613 (2015). The Vibrio cholerae, Escherichia coli and Staphylococcus aureus strains and plasmids are listed in the references cited in Table 2.
(§4) The Vibrio cholerae, Escherichia coli and Staphylococcus aureus strains were treated with SMRwt-CPP and SMRmut-CPP peptides and screened for inhibition of their biofilm-forming capacity using microtiter plate (MtP) methods (FIGS. 12-14 (crystal violet assays)) and confocal microscopy (FIGS. 15-16 (intensity count on confocal images).

Escherichia coli 042 = assay: as above; format: cell-based; details: FIG. 13
Protocol: as §1, §2, §3, §4

[1] = system: Staphylococcus aureus SCO1; assay: as above; format: cell-based; details: FIG. 14
Protocol: as §1, §2, §3, §4

V. cholerae C7258 = assay: Biofilm formation, SYTO9 confocal microscopy, ImageJ; format: cell-based, Vibrio cholerae; details: 24 h static, 18, 36, 72 nM, FIG. 16
Protocol: (§5) Strain V. cholerae C7258 was grown in LB medium at 30° C. to stationary phase. The cultures were diluted 100 fords in fresh medium and biofilm allowed to develop under static conditions for 24 h in Mat Tek glass bottom culture plates. Biofilm formation was stained with SYTO9 and observed by Leico confocal microscopy and three-dimensional (3D) views of V. cholerae and measured using the ImageJ. (A) Confocal images, (B) 3D images, and (C) bar graphs showing the inhibit effect of biofilm formation. Error bars represent the mean±SD of two independent experiments. Asterisks (*) indicate significant differences (p≤0.05) relative to negative control *p<0.01 vs 18 nM, 36 nM and 72 nM SMRwt-CPP peptide treatment. Each value represents the mean of three independent experiments. Error bars denote the standard deviation (STDEV).
as §4

[2] = system: Staphylococcus aureus SCO1; assay: as above; format: cell-based; details: 24 h static, 18, 36, 72 nM, FIG. 15
Protocol: as §5, with “SCO1” for “V. cholerae C7258”, “37°” for “30°”, “S. aureus” for “V. cholerae”, “(18 nM), **p<0.001 (36” for “vs 18”, “nM,” for “nM, 36 nM and”, “nM) in SMR-CPP” for “nM SMRwt-CPP”
as §4

Row | Sequence | effect on eukaryotic cell growth (Jurkat) | inhibition of biofilm formation (Vibrio cholerae C7258) | inhibition of biofilm formation (Escherichia coli 042) | inhibition of biofilm formation [1] | inhibition of biofilm formation (V. cholerae C7258) | inhibition of biofilm formation [2]
1 | AGFPVAAAGFPVDYKDDDDK [SMRmut, reference compound] | no effect on eukaryotic cell growth |  |  |  |  | 
2 | AGFPVAAAGFPVGRKKRRQRRRPPQ [SMRmut-CPP, reference compound] |  | no significant effect | no significant effect | no significant effect |  | 
3 | VGFPVAAVGFPVDYKDDDDK [SMRwt] | no effect on eukaryotic cell growth |  |  |  |  | 
4 | VGFPVAAVGFPVGRKKRRQRRRPPQ [SMRwt-CPP] |  | dose-response inhibition of biofilm formation | dose-response inhibition of biofilm formation | dose-response inhibition of biofilm formation | dose-response inhibition of biofilm formation | dose-response inhibition of biofilm formation
